{"source": "patent EP4361137A1", "about": "“PRUNE1 INHIBITORS AND THERAPEUTIC USE THEREOF” (CEINGE Biotecnologie Avanzate Franco Salvatore s.c. a r.l., priority 2022, dated 2024)", "key": {"MATH1-Prune1/ TP53-/-": {"tested_on": "MATH1-Prune1/ TP53-/-", "experiment": "Orthotopic implantation of MATH1-Prune1/TP53-/- cells in immunocompetent syngeneic mice, tumor growth", "format": "in vivo, FVB WT mice", "details": "for intracranial tumor growth (bioluminescence, photon emission) / BLI signal from the spinal cord (metastasis): 6 mg/kg/day intraperitoneally for 7 days, T17, HCl salt; for BLI signal from the spinal cord (metastasis): ex vivo", "description": "MATH1-Prune1/ TP53-/- were implanted into the right cerebellar hemisphere of female (n.10) immunocompetent syngeneic mice model (5 weeks old, strain: FVB WT) to establish intracerebellar MATH1-Prune1/ TP53-/- models. Mice were anaesthetised with Ketamine/ Xylazine (87.5 mg/kg, 12.5 mg/kg, respectively). The mice were then placed in a stereotactic frame by hooking their incisors onto the frame hold. A small skin incision (length, 1 mm) and a burr hole (diameter, 0.7 mm) were created using a microsurgical drill (Fine Science Tools, Foster City, CA, USA of MATH1-Prune1/ TP53-/- (1.5 ×10^5) were resuspended in 10 µL PBS and injected slowly through the burr hole into the right cerebellar hemisphere (stereotactic coordinates from Bregma: anteroposterior, 5.5 mm; right lateral, 2.1 mm; dorsoventral 5.0 mm), with a steady force over 30 s, using a 10-AL, 26-gauge Hamilton Gastight model 1701RN syringe needle (SigmaAldrich) that was inserted perpendicular to the cranial surface. The incision was sutured using Safil polyglycolic acid synthetic absorbable suture (6/0). The mice were kept on a warming blanket after the surgery, to help them to maintain their body temperature. Their mobility and respiratory patterns were observed continuously, and once the mice had recovered from the anaesthesia; they were place in a sterile housing cage. The mice were monitored daily for development of potential neurological deficits. 10 days after the implantation of the cells, the mice were imaged, and tumour growth was evaluated by bioluminescence acquisition using an imaging system (IVIS 3D Illumina; Xenogen/ Caliper). For the acquisitions, the mice were anaesthetised by inhalational of isoflurane, and the D-luciferin (122799; PerkinElmer) (15 mg/mL stock) was injected intraperitoneally (100 µL per 10 g body weight). At 5 min from the luciferin injection, the mice were imaged for 3 min. To quantify the bioluminescence, the integrated fluxes of photons (p/s) within each area of interest were determined using the Living Images Software Package 3.2 (Xenogen-Perkin Elmer). […] After 17 days from tumour implantation (i.e., after one weeks of LEO-AA7.5(S)T treatment), the mice were sacrificed, and the organs were collected for immunohistochemistry and immunofluorescence analyses.\nParaffin sections of the tumor specimens (thickness, 3 µm) were deparaffinised and rehydrated by immersing the slides in Xylene Substitute (A5597; Sigma), as three washes for 5 min each, then serially in 100%, 95%, 70%, 50%, and 30% ethanol (two washes for 10 min, for each), and deionised water (two washes, for 5 min each). The washes were then followed by PBS, PBS containing 0.02% Triton-X 100 (215680010; Acros Organics), and PBS (two washes for 5 min, for each). For antigen retrieval, the slides were immersed in boiling 10 mM sodium citrate buffer (pH 6.0) using a microwave oven, and then maintained at sub-boiling temperature for 10 min. The slides were left to cool at room temperature for 30 min. The sections were then washed by immersion in distilled water for 5 min. To block endogenous peroxidase activity, the tissue sections were placed in a solution with 3.0% hydrogen peroxide in methanol for 15 min. Then, to decrease the nonspecific background fluorescence, the tissues were digested by treating them with a solution containing 0.2% trypsin (T2600000; Sigma-Aldrich) and 0.001% CaCl2 for 10 min at 37 °C, in a humidified chamber. The slides were then washed in PBS, PBS containing 0.02% Triton-X 100 (215680010; Acros Organics), and PBS (two washes for 5 min, for each). The tissue sections were blocked with 6% bovine serum albumin (A9418; Sigma), 5% fetal bovine serum (ECS0180L; Euroclone), and 20 mM MgCl2 in PBS containing 0.02% Triton-X 100, for 1 h at room temperature, and incubated overnight with the primary antibodies at 4 °C in a humidified chamber. […]"}, "[1]": {"tested_on": "MATH1-Prune1/TP53-/- cells", "experiment": "Mouse cytokine antibody array on conditioned media", "format": "cell-based, murine", "details": "10 µM, 24 hours; n.61 cytokines measured", "description": "The conditioned media collected from three different vehicle- or 10 µM LEO-AA7.5(S)T-treated MATH1-Prune1/TP53-/- cells after 24 hours were pooled. The relative levels of cytokines in the pooled conditioned media and murine sera were measured (RayBio C-Series Mouse Cytokine Antibody Array C3 [AAM-CYT-3-2]), according to the manufacturer protocol. Densitometric analysis was carried out using the Quantity One software (BioRad). Expression levels were normalized to the levels of the positive control spots (contained within the membrane). For each cytokine, the mean ±standard error was determined."}, "MMTV-Prune1/Wnt1 cells": {"tested_on": "MMTV-Prune1/Wnt1 cells", "experiment": "Real-time cell migration analysis (cell index)", "format": "cell-based, murine", "details": "10 µM and 100 µM, dose dependent"}, "human and murine Prune1": {"tested_on": "human and murine Prune1", "experiment": "qPCR of PRUNE1 mRNA in MMTV-Prune1/Wnt1 cells", "format": "cell-based", "design": "dose or concentration left out as unconfirmed", "description": "D425.MED and MMTV-Prune1/Wnt1 cells were plated and treated with increasing concentrations of LEO-AA7.5(S)T for 24 hours. Water-treated cells were used as negative control for the experiments.\nRNA samples were extracted using TRIzol RNA Isolation Reagent (15596026, Invitrogen), according to the manufacturer instructions. Reverse transcription was performed with 5× All-In-One RT MasterMix (g592; ABM), according to the manufacturer instructions. The reverse transcription products (cDNA) were amplified by qRT-PCR using an RT-PCR system (7900; Applied Biosystems, Foster City, CA, USA). The cDNA preparation was through the cycling method, by incubating the complete reaction mix as follows: cDNA reactions: (37 °C for 10 min and 60 °C for 15 min); Heat-inactivation: 95 °C for 3 min; Hold stage: 4 °C. The targets were detected with the SYBR green approach, using BrightGreen BlasTaq 2× PCR MasterMix (G895; ABM). Human ACTB was used as the housekeeping gene to normalize the quantification cycle (Cq) values of the other genes. […] Relative expression of the target genes was determined using the 2^-ΔΔCq method, as the fold increase compared with the controls. […]"}, "[2]": {"details": "listed as (S)-(1-(4-((4-methoxybenzyl)amino)-1,3,5-triazin-2-yl)piperidin-3-yl)methanol HC"}}, "note": "“Also recorded” adds a separate entry of the source.", "data": [{"smiles": "COc1ccc(CNc2ncnc(N3CCC[C@H](CO)C3)n2)cc1.Cl", "note": "[LEO-AA7.5(S)T, (S)-(1-(4-((4-methoxybenzyl)amino)-1,3,5-triazin-2-yl)piperidin-3-yl)methanol HCl salt]", "values": [{"measurement": "intracranial tumor growth (bioluminescence, photon emission)", "setting": "MATH1-Prune1/ TP53-/-", "value": "impairment of tumour growth"}, {"measurement": "intracranial tumor growth (bioluminescence, photon emission)", "setting": "MATH1-Prune1/ TP53-/-; [2]", "value": "significantly decreased; also recorded: anti-tumorigenic action"}, {"measurement": "BLI signal from the spinal cord (metastasis)", "setting": "MATH1-Prune1/ TP53-/-", "value": "decrease of metastasis"}, {"measurement": "BLI signal from the spinal cord (metastasis)", "setting": "MATH1-Prune1/ TP53-/-; [2]", "value": "decreased intensity of BLI signal"}, {"measurement": "immunosuppressive T cells (CD4+PD1+FOXP3+ and CD8+PD1+FOXP3+) in the tumor microenvironment", "setting": "MATH1-Prune1/ TP53-/-; 6 mg/kg/day, immunofluorescence of cerebellar tumor sections", "value": "reduced"}, {"measurement": "number of cytokines/ chemokines significantly downregulated in the conditioned media", "setting": "[1]", "value": 10}, {"measurement": "migration rate", "setting": "MMTV-Prune1/Wnt1 cells", "value": "reduction"}, {"measurement": "degradation of human and murine Prune transcript", "setting": "human and murine Prune1", "value": "enhance the degradation"}]}]}
